From ChEMBL document CHEMBL1128601, “Development of a novel series of trialkoxyaryl derivatives as specific and competitive antagonists of platelet activating factor” (J Med Chem, 1995)

test system: Platelet-activating factor receptor (Oryctolagus cuniculus); test: Competitive inhibition of PAF-induced platelet aggregation was measured as IC50 ratio is (1000 x the IC50 of the test compound divided by the IC50 of a standard); call rule not given here

IC50 ratio | SMILES
1740 | CCCCCCOc1ccc(C(=O)OCCCC[N+](C)(C)C)cc1OC.[I-]
263 | CCCCCCOc1c(Cl)cc(C(=O)OCCCC[N+](C)(C)C)cc1OC
540 | CCCCCOc1c(OC)cc(C(=O)OCCCC[N+](C)(C)C)cc1OC.[I-]
107 | CCCCCCOc1c(OC)cc(C(=O)OCCCC[n+]2ccccc2)cc1OC.[I-]
833 | CCCCCCOc1c(OC)cc(OC(=O)CCCC[N+](C)(C)C)cc1OC.[I-]
265 | CCCCCCOc1c(C)cc(C(=O)OCCCC[N+](C)(C)C)cc1C
13 | CCCCCCOc1c(OC)cc(C(=O)Oc2ccc3c(ccc[n+]3C)c2)cc1OC
48 | CCCCCCOc1c(OC)cc(C(=O)OCCCC[n+]2ccsc2)cc1OC
14.7 | CCCCCCOc1c(OC)cc(CCCCc2scnc2C)cc1OC
1000 | CCCCCCOc1c(OC)cc(C(=O)OCC[N+](C)(C)C)cc1OC.[I-]
1500 | CCCCCCOc1c(OC)cc(C(=O)OCCCCN(C)C)cc1OC
153 | CCCCCCCCCCOc1c(OC)cc(C(=O)OCC[N+](C)(C)C)cc1OC
203 | COc1cc(C(=O)OCCCC[N+](C)(C)C)cc(OC)c1OCCC1CCCC1
7000 | CCCCCCOc1c(OC)cc(C(=O)OCCC[N+](C)(C)C)cc1OC.[I-]
133 | CCCCCCOc1c(OC)cc(/C=C/CCCC[N+](C)(C)C)cc1OC.[I-]
507 | CCCCCCOc1c(OC)cc(C(=O)Oc2ccccc2CC[N+](C)(C)C)cc1OC
164 | CCCCCCOc1c(OC)cc(C(=O)OCCCC[N+](C)(C)C)cc1OC.[I-]

IC50 ratio | SMILES
103 | CCCCCCCCOc1c(OC)cc(C(=O)OCCCC[N+](C)(C)C)cc1OC
200 | CCCCCCOc1c(OC)cc(C=CCCCC[N+](C)(C)C)cc1OC.[I-]
116 | CCCCCCOc1c(OC)cc(C(=O)OCCc2scnc2C)cc1OC
144 | CCCCCCOc1c(OC)cc(C(=O)OCc2ccccc2C[N+](C)(C)C)cc1OC
199 | CCCCCCCOc1c(OC)cc(C(=O)OCCCC[N+](C)(C)C)cc1OC.[I-]
114 | CCCCCCOc1c(OC)cc(C(=O)OCCc2sc[n+](C)c2C)cc1OC.[I-]
115 | CCCCCCOc1c(OC)cc(C(=O)OCCCC[N+](CC)(CC)CC)cc1OC.[I-]
11.7 | CCCCCCOc1c(OC)cc(C(=O)Oc2cccc3ccc[n+](C)c23)cc1OC.[I-]
3370 | CCCCOc1c(OC)cc(C(=O)OCC[N+](C)(C)C)cc1OC.[I-]
35 | CCCCCCCCCCCCCCCCOc1c(OC)cc(C(=O)OCCCC[N+](C)(C)C)cc1OC
1400 | CCCCCCOc1ccc(C(=O)OCCCC[N+](C)(C)C)cc1
443 | COc1cc(C(=O)OCCCC[N+](C)(C)C)cc(OC)c1OCC1CCCCC1.[I-]
533 | COc1cc(C(=O)OCCCC[N+](C)(C)C)cc(OC)c1OCc1ccccc1.[I-]
65 | CCCCCCOc1c(OC)cc(CCCCCC[N+](C)(C)C)cc1OC
57.3 | CCCCCCOc1c(OC)cc(C(=O)OCCCC[n+]2cccc3ccccc32)cc1OC.[Cl-]
820 | CCCCCCOc1c(OC)cc(CC(=O)OCCC[N+](C)(C)C)cc1OC
270 | CCCCCCOc1c(OC)cc(C(=O)OCCCCCC[N+](C)(C)C)cc1OC

organism: Oryctolagus cuniculus; test: Activity against U-46,619 induced platelet aggregation; no effect at 20 uM; type: functional

IC50 | SMILES
Not Active | COc1cc(C(=O)OCCCC[N+](C)(C)C)cc(OC)c1OCC1CCCCC1.[I-]

organism: Oryctolagus cuniculus; test: Competitive inhibition of PAF-induced platelet aggregation was measured as IC50 ratio = [1000 x the IC50 of the test compound divided by the IC50 of a standard (3)]; type: functional

IC50 ratio | SMILES
15000 | COc1cc(C(=O)OCC[N+](C)(C)C)cc(OC)c1OC.[I-]

organism: Oryctolagus cuniculus; test: Activity against adenosine diphosphate (ADP) induced platelet aggregation

IC50 | SMILES
Not Active | CCCCCCOc1ccc(C(=O)OCCCC[N+](C)(C)C)cc1OC.[I-]
Not Active | CCCCCOc1c(OC)cc(C(=O)OCCCC[N+](C)(C)C)cc1OC.[I-]
Not Active | CCCCCCOc1c(OC)cc(C(=O)OCCCC[n+]2ccccc2)cc1OC.[I-]
Not Active | CCCCCCOc1c(OC)cc(OC(=O)CCCC[N+](C)(C)C)cc1OC.[I-]
Not Active | CCCCCCOc1c(OC)cc(C(=O)OCC[N+](C)(C)C)cc1OC.[I-]
Not Active | CCCCCCOc1c(OC)cc(C(=O)OCCCCN(C)C)cc1OC
Not Active | CCCCCCOc1c(OC)cc(C(=O)OCCC[N+](C)(C)C)cc1OC.[I-]
Not Active | CCCCCCOc1c(OC)cc(/C=C/CCCC[N+](C)(C)C)cc1OC.[I-]
Not Active | CCCCCCOc1c(OC)cc(C(=O)OCCCC[N+](C)(C)C)cc1OC.[I-]
Not Active | CCCCCCOc1c(OC)cc(C=CCCCC[N+](C)(C)C)cc1OC.[I-]
Not Active | CCCCCCCOc1c(OC)cc(C(=O)OCCCC[N+](C)(C)C)cc1OC.[I-]
Not Active | CCCCCCOc1c(OC)cc(C(=O)OCCc2sc[n+](C)c2C)cc1OC.[I-]
Not Active | CCCCCCOc1c(OC)cc(C(=O)OCCCC[N+](CC)(CC)CC)cc1OC.[I-]
Not Active | CCCCCCOc1c(OC)cc(C(=O)Oc2cccc3ccc[n+](C)c23)cc1OC.[I-]
Not Active | CCCCOc1c(OC)cc(C(=O)OCC[N+](C)(C)C)cc1OC.[I-]
Not Active | COc1cc(C(=O)OCCCC[N+](C)(C)C)cc(OC)c1OCc1ccccc1.[I-]
Not Active | CCCCCCOc1c(OC)cc(C(=O)OCCCC[n+]2cccc3ccccc32)cc1OC.[Cl-]
